Here are results for one compound from patent publication US20030078278A1, “Spiropiperidine compounds as ligands for ORL-1 receptor” (Pfizer Inc., priority 2001, published 2003).

Test [1] addresses T1, human ORL1 receptor (Homo sapiens, UniProt P41146).
T1 construct: expressed in transfected cells; host or cells: HEK-293
The experiment in a line: ORL1-Receptor Binding Assay ([3H]nociceptin, SPA). How it is done:
ORL1-Receptor Binding Assay:
The human ORL1 receptor transfected HEK-293 cell membranes were incubated for 45 min at 22° C. with 0.4 nM [^3H]nociceptin, 1.0 mg of wheat germ agglutinin-coated SPA beads and various concentrations of test compounds in a final volume of 200 μl of 50 mM HEPES buffer pH 7.4 containing 10 mM MgCl2 and 1 mM EDTA. Non-specific binding was determined by the addition of 1 μM unlabeled nociceptin. After the reaction, the assay plate was centrifuged at 1,000 rpm for 1 min and then the radioactivity was measured by a Liquid Scintillation Counter.
(§1) Each percent […] binding thus obtained is graphed as a function of compound concentration. A sigmoidal curve is used to determine 50% bindings (i.e., IC50 values).

The target in test [2] is T2, human Mu receptor (Homo sapiens, UniProt P35372).
T2 construct: expressed in transfected cells; host or cells: CHO-K1
Briefly: μ-Receptor Binding Assay ([3H]DAMGO, SPA). To be noted: human Mu receptor transfected CHO-K1 cell membranes, 1.0 nM [3H]DAMGO. The procedure:
μ-Receptor Binding Assay:
The human Mu receptor transfected CHO-K1 cell membranes were incubated for 45 min at 22° C. with 1.0 nM [^3H]DAMGO, 1.0 mg of wheat germ agglutinin-coated SPA beads and various concentrations of test compounds in a final volume of 200 μl of 50 mM Tris-HCl buffer pH 7.4 containing 5 mM MgCl2. Non-specific binding was determined by the addition of 1 μM unlabeled DAMGO. After the reaction, the assay plate was centrifuged at 1,000 rpm for 1 min and then the radioactivity was measured by a Liquid Scintillation Counter.
as §1

pIC50: −log10 of the molar value.

T1 sequence (P41146 whole entry): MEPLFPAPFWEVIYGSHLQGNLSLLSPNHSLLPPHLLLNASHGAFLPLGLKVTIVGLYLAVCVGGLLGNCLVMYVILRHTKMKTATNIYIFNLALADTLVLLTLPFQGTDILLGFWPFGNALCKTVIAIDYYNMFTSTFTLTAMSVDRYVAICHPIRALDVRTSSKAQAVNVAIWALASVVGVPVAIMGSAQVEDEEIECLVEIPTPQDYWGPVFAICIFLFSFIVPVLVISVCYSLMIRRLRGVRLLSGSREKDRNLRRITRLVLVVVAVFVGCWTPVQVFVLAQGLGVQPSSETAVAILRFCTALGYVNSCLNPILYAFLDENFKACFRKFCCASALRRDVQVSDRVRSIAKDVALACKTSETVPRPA
T2 sequence (P35372 whole entry): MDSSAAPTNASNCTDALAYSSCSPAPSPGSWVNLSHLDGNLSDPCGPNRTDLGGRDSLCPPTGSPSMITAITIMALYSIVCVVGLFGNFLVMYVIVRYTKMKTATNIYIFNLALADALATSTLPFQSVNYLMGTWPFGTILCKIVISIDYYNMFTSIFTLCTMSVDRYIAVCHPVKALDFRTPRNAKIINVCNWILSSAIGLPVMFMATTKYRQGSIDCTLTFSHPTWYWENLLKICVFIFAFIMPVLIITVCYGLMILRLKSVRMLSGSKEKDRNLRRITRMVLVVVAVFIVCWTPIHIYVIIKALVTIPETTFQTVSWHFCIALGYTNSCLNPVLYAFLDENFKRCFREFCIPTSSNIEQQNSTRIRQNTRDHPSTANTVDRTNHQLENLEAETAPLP

Turning to `O=c1oc2ccccc2n1CCCN1CCC2(CCc3ccccc32)CC1` [Example 9, 2,3-Dihydro-1′-[3-(2-oxo-1,3-benzoxazol-3(2H)-yl)propyl]spiro[1H-indene-1,4′-piperidine]], the pIC50 was 7.05 in test [1] and 6.06 in test [2]. Besides, the “selectivity of binding affinity, ORL-1 receptor versus mu-receptor (in words)” value in test [1] (comparison of ORL1 and mu binding assays) is “selective affinity for ORL-1 receptor over mu-receptor”.
